System: Sub-Populations of Crohn's Disease Patients
Experiment: CD-LAQ-201 sub-populations of Crohn's disease patients (Example 2)
Type: in vivo, human
Conditions: for Remission - N (%): % / Remission - N (%): N: week 8
Protocol: This study was conducted according and with similar requirements as presented in Example 1. […] Patients, who have received anti-TNFαs in the past, tend to reflect a more severe, refractory segment of the Crohn's disease population. […] This sub-cohort analysis describes remission rates at week 8 for patients who were classified as having a predominantly inflammatory disease (based on the Montreal classifications) versus those that have a fibrostenotic or penetrating disease.

[1] = Laq 0.5 mg, Oral steroids on Baseline NO
[2] = Laq 0.5 mg, Oral steroids on Baseline YES
[3] = Laq 0.5 mg, Previous Operations NO
[4] = Laq 0.5 mg, Previous Operations YES
[5] = Laq 0.5 mg, Previous use of anti-TNFαs NO
[6] = Laq 0.5 mg, Previous use of anti-TNFαs YES
[7] = Laq 1.0 mg, Oral steroids on Baseline NO
[8] = Laq 1.0 mg, Oral steroids on Baseline YES
[9] = Laq 1.0 mg, Previous Operations NO
[10] = Laq 1.0 mg, Previous Operations YES
[11] = Laq 1.0 mg, Previous use of anti-TNFαs NO
[12] = Laq 1.0 mg, Previous use of anti-TNFαs YES

SMILES: CCN(C(=O)c1c(O)c2c(Cl)cccc2n(C)c1=O)c1ccccc1 [laquinimod]
- effect on remission at week 8 with or without previous anti-TNFαs (0.5 mg): remains robust on both sub-populations
- effect on remission at week 8 in fibrostenotic or penetrating disease (0.5 mg or 1 mg): no effect
- effectiveness in anti-TNF refractory patients (FIG. 1) (0.5 mg/day laquinimod): robustly effective
- effectiveness in anti-TNF refractory patients (FIG. 1) (1 mg/day laquinimod): effective relative to placebo
- CDAI Change from Baseline - Mean ± SD (Laq 0.5 mg, Fibrostenotic): −9.3
- Responders70 - N (%): % (Laq 0.5 mg, Fibrostenotic): 42.9%
- Responders70 - N (%): N (Laq 0.5 mg, Fibrostenotic): 3
- Responders100 - N (%): % (Laq 0.5 mg, Fibrostenotic): 28.6%
- Responders100 - N (%): N (Laq 0.5 mg, Fibrostenotic): 2
- Remission - N (%): % (Laq 0.5 mg, Fibrostenotic): 14.3%
- Remission - N (%): N (Laq 0.5 mg, Fibrostenotic): 1
- CDAI Change from Baseline - Mean ± SD (Laq 0.5 mg, Inflammatory): −125.1
- Responders70 - N (%): % (Laq 0.5 mg, Inflammatory): 68.2%
- Responders70 - N (%): N (Laq 0.5 mg, Inflammatory): 15
- Responders100 - N (%): % (Laq 0.5 mg, Inflammatory): 63.6%
- Responders100 - N (%): N (Laq 0.5 mg, Inflammatory): 14
- Remission - N (%): % (Laq 0.5 mg, Inflammatory): about 60%
- Remission - N (%): N (Laq 0.5 mg, Inflammatory): 13
- Remission - N (%): % (Laq 0.5 mg, Inflammatory, listed as Laq): 59.1%
- CDAI Change from Baseline - Mean ± SD [1]: −85.3
- Responders70 - N (%): % [1]: 57.9%
- Responders70 - N (%): N [1]: 11
- Responders100 - N (%): % [1]: 47.4%
- Responders100 - N (%): N [1]: 9
- Remission - N (%): % [1]: about 40%
- Remission - N (%): N [1]: 8
- Remission - N (%): % (Laq 0.5 mg, Oral steroids on Baseline NO, listed as Laq): 42.1%
- CDAI Change from Baseline - Mean ± SD [2]: −119.8
- Responders70 - N (%): % [2]: 70.0%
- Responders70 - N (%): N [2]: 7
- Responders100 - N (%): % [2]: 70.0%
- Responders100 - N (%): N [2]: 7
- Remission - N (%): % [2]: approximately 60%
- Remission - N (%): N [2]: 6
- Remission - N (%): % (Laq 0.5 mg, Oral steroids on Baseline YES, listed as Laq): 60.0%
- CDAI Change from Baseline - Mean ± SD [3]: −118.1
- Responders70 - N (%): % [3]: 62.5%
- Responders70 - N (%): N [3]: 15
- Responders100 - N (%): % [3]: 58.3%
- Responders100 - N (%): N [3]: 14
- Remission - N (%): % [3]: higher than 50%
- Remission - N (%): N [3]: 13
- Remission - N (%): % (Laq 0.5 mg, Previous Operations NO, listed as Laq): 54.2%
- CDAI Change from Baseline - Mean ± SD [4]: 3.2
- Responders70 - N (%): % [4]: 60.0%
- Responders70 - N (%): N [4]: 3
- Responders100 - N (%): % [4]: 40.0%
- Responders100 - N (%): N [4]: 2
- Remission - N (%): % [4]: 20.0%
- Remission - N (%): N [4]: 1
- CDAI Change from Baseline - Mean ± SD [5]: −88.2
- Responders70 - N (%): % [5]: 63.6%
- Responders70 - N (%): N [5]: 7
- Responders100 - N (%): % [5]: 54.5%
- Responders100 - N (%): N [5]: 6
- Remission - N (%): % [5]: 54.5%
- Remission - N (%): N [5]: 6
- CDAI Change from Baseline - Mean ± SD [6]: −102.7
- Responders70 - N (%): % [6]: 61.1%
- Responders70 - N (%): N [6]: 11
- Responders100 - N (%): % [6]: 55.6%
- Responders100 - N (%): N [6]: 10
- Remission - N (%): % [6]: 44.4%
- Remission - N (%): N [6]: 8
- CDAI Change from Baseline - Mean ± SD (Laq 1.0 mg, Fibrostenotic): −65.8
- Responders70 - N (%): % (Laq 1.0 mg, Fibrostenotic): 41.7%
- Responders70 - N (%): N (Laq 1.0 mg, Fibrostenotic): 5
- Responders100 - N (%): % (Laq 1.0 mg, Fibrostenotic): 41.7%
- Responders100 - N (%): N (Laq 1.0 mg, Fibrostenotic): 5
- Remission - N (%): % (Laq 1.0 mg, Fibrostenotic): 16.7%
- Remission - N (%): N (Laq 1.0 mg, Fibrostenotic): 2
- CDAI Change from Baseline - Mean ± SD (Laq 1.0 mg, Inflammatory): −76.7
- Responders70 - N (%): % (Laq 1.0 mg, Inflammatory): 61.1%
- Responders70 - N (%): N (Laq 1.0 mg, Inflammatory): 11
- Responders100 - N (%): % (Laq 1.0 mg, Inflammatory): 38.9%
- Responders100 - N (%): N (Laq 1.0 mg, Inflammatory): 7
- Remission - N (%): % (Laq 1.0 mg, Inflammatory): 33.3%
- Remission - N (%): N (Laq 1.0 mg, Inflammatory): 6
- CDAI Change from Baseline - Mean ± SD [7]: −59.4
- Responders70 - N (%): % [7]: 50.0%
- Responders70 - N (%): N [7]: 9
- Responders100 - N (%): % [7]: 33.3%
- Responders100 - N (%): N [7]: 6
- Remission - N (%): % [7]: 22.2%
- Remission - N (%): N [7]: 4
- CDAI Change from Baseline - Mean ± SD [8]: −93.5
- Responders70 - N (%): % [8]: 58.3%
- Responders70 - N (%): N [8]: 7
- Responders100 - N (%): % [8]: 50.0%
- Responders100 - N (%): N [8]: 6
- Remission - N (%): % [8]: 33.3%
- Remission - N (%): N [8]: 4
- CDAI Change from Baseline - Mean ± SD [9]: −77.9
- Responders70 - N (%): % [9]: 55.6%
- Responders70 - N (%): N [9]: 10
- Responders100 - N (%): % [9]: 38.9%
- Responders100 - N (%): N [9]: 7
- Remission - N (%): % [9]: 33.3%
- Remission - N (%): N [9]: 6
- CDAI Change from Baseline - Mean ± SD [10]: −66.0
- Responders70 - N (%): % [10]: 50.0%
- Responders70 - N (%): N [10]: 6
- Responders100 - N (%): % [10]: 41.7%
- Responders100 - N (%): N [10]: 5
- Remission - N (%): % [10]: 16.7%
- Remission - N (%): N [10]: 2
- CDAI Change from Baseline - Mean ± SD [11]: −38.5
- Responders70 - N (%): % [11]: 27.3%
- Responders70 - N (%): N [11]: 3
- Responders100 - N (%): % [11]: 27.3%
- Responders100 - N (%): N [11]: 3
- Remission - N (%): % [11]: 18.2%
- Remission - N (%): N [11]: 2
- CDAI Change from Baseline - Mean ± SD [12]: −36.8
- Responders70 - N (%): % [12]: 27.8%
- Responders70 - N (%): N [12]: 5
- Responders100 - N (%): % [12]: 27.8%
